Test results published in PMC12475007 (2025).

What was measured:
Experiment in all cases: fluorescence bead binding assay
Conditions in all cases: binding buffer, room temperature, 1 h; immobilised compound (on beads)
[1] = tested on: P2 (DNA, aptamer) AGACGTGATGAAGTTCAATCAGGATGCAATGTATTAATGG
[2] = tested on: P1 (DNA, aptamer) TGCGGAGCGAGGCCCTAGGCGTGGTGGCATTGATTTGTAT
[3] = tested on: P4 (DNA, aptamer) TGTGCATTCGTGTGAATTAACTCGTCCACCAGAGCCCGTG
[4] = tested on: P5 (DNA, aptamer) ACATGTGTAGGCGGTTGGATGCATTATGAGATGGGACATG
[5] = tested on: P3 (DNA, aptamer) CCAAGCATCGTCACATCACATTATCACACATTGTCGTCCGT
[6] = tested on: L2 (DNA, aptamer) CCCATCACCACATTGTCACATCACTCGTCACATACAGCCCG
[7] = tested on: L4 (DNA, aptamer) TAAGCCCGGCTGAGATAACGGTTGATCCGAAGCTGGTTTT
[8] = tested on: L1 (DNA, aptamer) CAGTCTGCGCCGATTTCTCGCGGATTGCGACGAGGATACG
[9] = tested on: L3 (DNA, aptamer) CACACATACGGGAGAGGCCCCATAAACTCATGCACGTCCTG

Kd [1] [nM]	Kd [2] [nM]	Kd [3] [nM]	Kd [4] [nM]	Kd [5] [nM]	Kd [6] [nM]	Kd [7] [nM]	Kd [8] [nM]	Kd [9] [nM]	SMILES
484.2	139.2	208.1	54.07	38.02					CC(=O)O[C@H]1C(=O)[C@@]2(C)[C@H]([C@H](OC(=O)c3ccccc3)[C@]3(O)C[C@H](OC(=O)[C@H](O)[C@@H](NC(=O)c4ccccc4)c4ccccc4)C(C)=C1C3(C)C)[C@]1(OC(C)=O)CO[C@@H]1C[C@@H]2O
					284.2	285.7	125.7	225.7	Nc1nc(=O)c2c([nH]1)NC[C@@H](CNc1ccc(C(=O)N[C@@H](CCC(=O)O)C(=O)O)cc1)N2C=O
